Experimental data from patent publication US20260027108A1, “PHARMACEUTICAL COMPOSITION OF HETEROARYL DERIVATIVE AND MEDICAL USE THEREOF” (Haisco Pharmaceutical Group Co., Ltd., priority 2022, published 2026).
Where two headings read alike, the source gives them in different places.

What was measured:
MDA-MB-436 cells = assay: MDA-MB-436 cell activity test (CellTiter-Glo, 7 days); assay type: cell-based, Human; settings: for IC50: 7 days incubation, read-out: MDA-MB-436 cell inhibitory activity IC50
Description: On day 1, the cells in the exponential growth phase were collected, and the cell suspension was adjusted to 4000 cells/135 μL with the culture medium. 135 μL of the cell suspension was added to each well of a 96-well cell culture plate and incubated overnight. On day 2, compounds at different concentrations were added, and the plate was placed in the incubator and incubated for 7 days. After the incubation was completed, according to operation instructions for a CellTiter-Glo kit (Promega, G7573), 75 μL of CTG solution, which was already pre-melted and equilibrated to room temperature, was added to each well, and the mixture was uniformly mixed for 2 min using a microplate shaker. The plate was placed at room temperature for 10 min, and then […] were measured using an Envision2104 plate reader (PerkinElmer). […] The IC50 value was calculated using GraphPad Prism software.

PARP1 enzyme = PARP1 enzyme (Homo sapiens (Human), UniProt P09874); assay: PARP1 enzyme activity test (chemiluminescence kit, BPS Bioscience); assay type: biochemical; settings: read-out: PARP-1 enzyme activity IC50
Description: PARP1 chemical fluorescence detection kit was purchased from BPS Bioscience. The histone solution in the kit was diluted 5× with 1×PBS, and 25 μL of the diluted histone solution was added to a microwell plate and incubated overnight at 4° C. After the incubation, the plate was washed three times with PBST (0.05% Tween-20). 100 μL of the blocking solution was added to the microwell plate and incubated at 25° C. for 90 minutes. After the incubation was completed, the plate was washed three times with PBST. 2.5 μL of compounds at different concentrations diluted in test buffer and 12.5 μL of substrate mixed solution (1.25 μL 10×PARP test buffer; 1.25 μL 10×PARP test mixed solution; 2.5 μL Activated DNA, 7.5 μL double-distilled water) were added to the microwell plate. The PARP1 enzyme was diluted to 2 ng/μL, 10 μL of the diluent was added to the microwell plate, and the reaction system was incubated at 25° C. for 60 minutes.
After the incubation was completed, the plate was washed three times with PBST. Streptavidin-HRP was diluted 50× with a blocking solution, and 25 μL of the diluent was added to the microwell plate and incubated at 25° C. for 30 minutes. After the incubation, the plate was washed three times with PBST. ELISA ECL substrate A and substrate B were mixed at a ratio of 1:1 (v/v), 50 μL of the mixture was added to the microwell plate, and the chemiluminescence value was read.
Curve fitting was performed by four parameters (log(inhibitor) vs. response—Variable slope) using GraphPad Prism software, and the IC50 value was calculated.

[1] = system: MDA-MB-436 subcutaneous transplanted tumor; assay: Mouse MDA-MB-436 subcutaneous in vivo transplanted tumor model; settings: Day 0-Day 10: 1 mg/kg, Day 11-Day 28: 0.1 mg/kg, once a day
Description: Human breast cancer MDA-MB-436 cells were placed in Leibovitz's L-15 medium (supplemented with 10 μg/mL insulin, 16 μg/mL glutathione, 10% fetal bovine serum and 1% penicillin-streptomycin solution) and cultured at 37° C. Conventional digestion treatment with trypsin was performed twice a week for passage. When the cell saturation was 80%-90%, and the number reached the requirement, the cells were harvested, counted, and inoculated. BALB/c nude mice (from Beijing Vital River Laboratory Animal Technology Co., Ltd.) were subcutaneously inoculated with 0.2 mL (10×10^6) of MDA-MB-436 cells (plus matrigel, with the volume ratio of 1:1) on the right back. When the average tumor volume reached about 180 mms, grouping and administration were performed (marked as Day 0). […] The administration frequency was once a day, the administration cycle was 29 days, and the drug withdrawal observation period was set to 14 days. After grouping, the tumor diameter was measured twice a week with a vernier caliper. The formula for calculating the tumor volume was: V=0.5×a×b^2, where a and b represented the long and short diameters of the tumor, respectively.

Chain of PARP1 enzyme (P09874 whole entry): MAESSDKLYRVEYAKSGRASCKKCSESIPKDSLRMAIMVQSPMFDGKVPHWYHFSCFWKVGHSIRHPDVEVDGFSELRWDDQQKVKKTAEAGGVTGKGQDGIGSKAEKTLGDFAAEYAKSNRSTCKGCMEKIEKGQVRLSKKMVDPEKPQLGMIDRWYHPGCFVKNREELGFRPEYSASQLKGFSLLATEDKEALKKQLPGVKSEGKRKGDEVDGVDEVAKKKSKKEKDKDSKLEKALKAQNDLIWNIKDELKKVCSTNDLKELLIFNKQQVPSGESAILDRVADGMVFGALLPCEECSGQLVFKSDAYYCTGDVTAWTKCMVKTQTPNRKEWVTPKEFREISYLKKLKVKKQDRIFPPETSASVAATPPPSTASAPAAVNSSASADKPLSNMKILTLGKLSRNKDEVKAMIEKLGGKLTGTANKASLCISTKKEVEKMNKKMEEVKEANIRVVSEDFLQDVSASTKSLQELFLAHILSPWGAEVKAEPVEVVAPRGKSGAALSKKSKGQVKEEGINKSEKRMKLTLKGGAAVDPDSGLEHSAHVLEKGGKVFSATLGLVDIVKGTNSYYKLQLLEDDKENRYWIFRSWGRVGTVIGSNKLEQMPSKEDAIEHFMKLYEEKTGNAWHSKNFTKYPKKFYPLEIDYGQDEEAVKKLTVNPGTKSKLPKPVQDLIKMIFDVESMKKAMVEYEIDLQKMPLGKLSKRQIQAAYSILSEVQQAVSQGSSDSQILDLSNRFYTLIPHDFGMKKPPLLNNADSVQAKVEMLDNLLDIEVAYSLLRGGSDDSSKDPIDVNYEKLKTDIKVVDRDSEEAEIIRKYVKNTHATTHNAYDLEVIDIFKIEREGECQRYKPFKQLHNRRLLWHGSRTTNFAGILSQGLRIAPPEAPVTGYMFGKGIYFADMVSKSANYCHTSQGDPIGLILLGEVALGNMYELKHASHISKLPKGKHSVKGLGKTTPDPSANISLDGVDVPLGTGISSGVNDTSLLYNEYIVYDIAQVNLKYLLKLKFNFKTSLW

CCC1=CC2N=CC(CN3CCN(c4ccc(C(=O)C[C@@H]5C[C@@H]5F)nc4)CC3)=CC2CC1=O (stereo partly drawn) [Compound 11]
Max inh. % 10 μM (MDA-MB-436 cells; 10 μM, MDA-MB-436 cells): 85.2%
IC50 (MDA-MB-436 cells): 6 nM
IC50 (PARP1 enzyme): 0.54 nM

CCc1cc2ncc(CN3CCN(c4ccc(C(=O)NC5C[C@H]5F)nc4)CC3)cc2[nH]c1=O (stereo partly drawn) [Compound 41]
IC50 (MDA-MB-436 cells; Homo sapiens, MDA-MB-436, 168 h): 2.3 nM
inhibition at 10 µM (MDA-MB-436 cells; Homo sapiens, 10 μM, MDA-MB-436 cells, read-out: Max inh. % 10 μM): 92.1%

CCc1cc2ncc(CN3CCN(c4ccc(NC(=O)[C@@H]5C[C@H]5F)nc4)CC3)cc2[nH]c1=O [Compound 35]
IC50 (PARP1 enzyme): 0.97 nM

COc1cc2ncc(CN3CCN(c4ccc(C(=O)NC5CN(c6ccccc6)C5)nc4)CC3)cc2[nH]c1=O [Compound 46]
IC50 (PARP1 enzyme): 0.56 nM

CCc1cc2ncc(CN3CCN(c4ccc(NC(=O)[C@H]5C[C@H]5F)nc4)CC3)cc2[nH]c1=O [Compound 34]
IC50 (PARP1 enzyme): 0.66 nM

CCc1cc2ncc(CN3CCN(c4ccc(C(=O)NC5CC5)nc4)CC3)cc2[nH]c1=O [Compound 4]
body weight of the animals [1]: no significant decrease
